Results as given in patent US11708375B2, “Reagents for reversibly protecting biological molecules” (BIOMÉRIEUX, priority 2016, dated 2023).
Blank lines part the entries; values can stand above or below the compound they belong to.

Columns and labels:
[1] = Cleavage at 95° C. of aza-anthranilate amides and release of phenylethylamine under hot start PCR conditions (LCMS/HPLC monitoring); assay type: physicochemical; settings: 60 mM Tris pH 9 PCR buffer
Experimental: Into a 1.5 mL tube are added: 20 μL 2.5 mM amide solution (10, 14 or 19) in DMSO and 180 μL of a buffer conventionally used in a genetic material amplification reaction (60 mM Tris pH 9, 50 mM […], 1 mM MgCl2). The mixture is then stirred at 95° C. in a thermomixer. LCMS monitoring (condition 1) is performed at t=15 min, 30 min, and 1 h
Thermal deprotection of the phenoxyacetate group leads to formation of the corresponding benzyl alcohol (see Diagram 7). The nucleophilic attack of alcohol on the carbonyl involved in the amide bond then allows releasing the phenylethylamine into the medium by generating the corresponding lactone.
This derivative can then be cyclized to form the corresponding […] by releasing phenylethylamine into the medium (Diagram 9 above).

Human hemoglobin = target: T1, Human hemoglobin (Homo sapiens, UniProt P68871+P69905); test: Reversible acylation of hemoglobin by compound 13 (HPLC profile); assay type: biochemical
T1 construct: purchased Sigma H7379
T1 sequence (P69905 2-142 limits assumed): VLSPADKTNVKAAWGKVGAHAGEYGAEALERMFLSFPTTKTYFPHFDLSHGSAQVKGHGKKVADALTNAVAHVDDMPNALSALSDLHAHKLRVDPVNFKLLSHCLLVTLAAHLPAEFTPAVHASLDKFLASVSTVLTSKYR
T1 sequence (P68871 2-147 limits assumed): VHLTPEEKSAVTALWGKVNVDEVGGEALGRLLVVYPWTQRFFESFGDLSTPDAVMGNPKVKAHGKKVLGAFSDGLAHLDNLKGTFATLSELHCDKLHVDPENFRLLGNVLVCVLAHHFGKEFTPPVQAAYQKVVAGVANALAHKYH
Experimental: The mixtures are created as described below, where experiments AL600 1× to AL 600 0.25× respectively correspond to 33 μg hemoglobin reacted with increasing concentrations of the azaisatoic compound in a mixture of DMSO and PBS at pH 7.4 (PBS=Phosphate buffered saline resulting from dissolving a tablet, reference Sigma P4417, in 200 ml water (pH 7.4)) The mixtures are incubated at room temperature for 2 hours before collecting an aliquot for HPLC analysis on a Waters XBridge BEH C4 300 column (Milford. USA), with a gradient of 20 to 72% acetonitrile in a solution of 10 mM trifluoroacetic acid, at 120 min.
One can clearly see, as before, that acylation of the hemoglobin leads to formation of a mass of acylated protein and then this mass disappears after heat treatment in order to regenerate the native protein.

Taq polymerase = target: T2, Taq polymerase (Thermus aquaticus, UniProt P19821); test: Polymerase activity of TAQ modified by compound 13 (hairpin probe elongation fluorescence); assay type: biochemical; settings: AL 604 0.375x
T2 construct: purchased Genscript E00012
T2 sequence (P19821 whole entry): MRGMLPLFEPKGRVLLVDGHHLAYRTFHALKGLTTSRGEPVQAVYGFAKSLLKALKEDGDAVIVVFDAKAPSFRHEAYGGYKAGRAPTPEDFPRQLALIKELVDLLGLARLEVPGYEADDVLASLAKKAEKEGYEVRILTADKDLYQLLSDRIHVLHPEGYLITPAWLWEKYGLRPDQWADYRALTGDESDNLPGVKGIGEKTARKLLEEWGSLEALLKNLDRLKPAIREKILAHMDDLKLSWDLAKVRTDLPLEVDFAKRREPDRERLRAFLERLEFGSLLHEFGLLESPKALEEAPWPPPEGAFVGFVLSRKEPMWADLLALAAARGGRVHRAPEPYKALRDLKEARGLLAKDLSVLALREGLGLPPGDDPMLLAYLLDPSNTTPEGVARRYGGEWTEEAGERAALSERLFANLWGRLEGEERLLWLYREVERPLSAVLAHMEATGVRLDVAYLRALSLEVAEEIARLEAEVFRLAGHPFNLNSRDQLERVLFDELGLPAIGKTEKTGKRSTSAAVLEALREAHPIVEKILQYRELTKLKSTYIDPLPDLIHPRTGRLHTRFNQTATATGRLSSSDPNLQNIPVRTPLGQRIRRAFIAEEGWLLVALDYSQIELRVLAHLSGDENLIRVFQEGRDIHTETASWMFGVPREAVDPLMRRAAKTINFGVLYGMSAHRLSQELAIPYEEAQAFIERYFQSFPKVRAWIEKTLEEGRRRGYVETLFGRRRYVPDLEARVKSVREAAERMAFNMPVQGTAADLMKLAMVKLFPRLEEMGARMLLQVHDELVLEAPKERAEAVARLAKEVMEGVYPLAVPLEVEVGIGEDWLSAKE
Experimental: We used the Genscript Taq (2500 u/100 μl REF E00012), but in order to eliminate all traces of nucleophiles in this enzyme we did a change of buffer beforehand by passing through an Amicon 10 KD microcon (no. 42407). The enzyme suspension was thus deposited on the microcon and centrifuged until buffer depletion Five washes were performed with […] PBS pH 7.4, then the last retentate was recovered by inverting the tube and made up to QSP 20 μl with PBS to obtain a suspension at 125 u/μl. […]
The polymerization activity of the TAQ polymerase is determined using an oligonucleotide probe of 45 bases terminated by a “hairpin” structure. This is characterized by the presence of a fluorescence quencher at the beginning of the structure and a fluorophore at the end of the probe sequence, such that the quencher is spatially close to the fluorophore and no fluorescence signal can be measured in this configuration. […] Due to the elongation action, the probe hairpin structure is unfolded and the fluorophore is able to emit, and fluorescence is then measurable. This fluorescence measurement is carried out at a temperature of 60° C. for 20 minutes in the presence of the reagents required for activity of the enzyme, meaning dNTP, MgCl2, and a basic buffer at pH 9.5. […]
The ability to restore the activity of the enzyme after heating for 15 min at 95° C. for example is readily measurable by the same method.

non-cyclized deprotected form (intermediate amine) on HPLC monitoring ([1]; 95° C.): not detected
Structure (SMILES): CNc1ncc(I)c(CNC(=O)OC(C)(C)C)c1C(=O)NCCc1ccccc1 [derivative 19, tert-butyl ((5-iodo-2-(methylamino)-3-(phenethylcarbamoyl)pyridine-4-yl)methyl)carbamate]

Structure (SMILES): Cn1c(=O)oc(=O)c2c(COC(=O)COc3ccc(F)cc3)c(I)cnc21 [compound 13, (6-iodo-1-methyl-2,4-dioxo-2,4-dihydro-1H-pyrido[2,3-d][1,3]oxazine-5-yl) methyl 2-(4-fluorophenoxy)acetate]
acylation of hemoglobin (HPLC chromatogram) (Human hemoglobin; 33 μg hemoglobin, AL 600 0.25x-1x, DMSO/PBS pH 7.4, room temperature, 2 hours): disappearance of the protein portion in favor of a massive shift to the right | reversal of the acylation of hemoglobin after heat treatment (HPLC chromatogram) (Human hemoglobin; AL 600 1x, 95° C. for 15 min in PCR buffer (Tris pH9), taken up in 8M GuHCl): restoring the chromatographic profile of the native hemoglobin | polymerase activity of Taq after acylation, without activation (Taq polymerase; 625 units Taq, DMSO/PBS pH 7.4, 3 hours room temperature, measured at 60° C. for 20 minutes): completely inactivated | polymerase activity of Taq after acylation and heat activation (Taq polymerase; after treatment at 95° C. for 15 min under hot start PCR conditions): restored

amide population ([1]; 15 minutes at 95° C.): very low | amide population ([1]; 30 minutes at 95° C.): almost completely disappeared
Structure (SMILES): CNc1ncc(I)c(COC(=O)COc2ccc(F)cc2)c1C(=O)NCCc1ccccc1 [derivative 14, (5-iodo-2-(methylamino)-3-(phenethylcarbamoyl)pyridine-4-yl)methyl 2-(4-fluorophenoxy)acetate]

population of the initial amide and the alcohol ([1]; 1 h at 95° C.): almost completely disappeared
Structure (SMILES): CNc1ncc(I)c(COC(=O)COc2ccccc2)c1C(=O)NCCc1ccccc1 [derivative 10, (5-iodo-2-(methylamino)-3-(phenethylcarbamoyl)pyridine-4-yl)methyl 2-phenoxyacetate]
species observed by HPLC after heating (cleavage of the amide derivative) ([1]; 15 minutes at 95° C., 10% DMSO): formation of the deprotected alcohol and the expected lactone
